Results from patent publication US5234942A, “Heterocyclic amides and leucotriene antagonistic use thereof” (ICI Americas Inc., priority 1984, dated 1993).

system: leukotrienes; assay: leukotriene antagonist properties (test not specified; standard tests); details: in words
Experimental: Using this procedure, tracheal tissue strips are set up in groups of eight, four being used as time/vehicle controls and four for each test compound. All of the strips are exposed to 8×10^-9 M leukotriene E4 (LTE4) following the 50 minute equilibration period, and the response recorded. This concentration of LTE4 is that which produces a contraction equal to about 70-80% of the maximal effect of the agonist in this tissue. The LTE4 is washed out for 40-45 minutes and the procedure repeated twice to ensure that reproducible responses are being obtained with LTE4. Leukotriene C4 (LTC4) or D4 (LTD4), at a concentration of 8×10^-9 M, may be substituted for LTE4 in the same procedure.
Once tissue reproducibility has been established, test compounds are added to four baths following the 40 to 45 minute washout period. After a 10 minute incubation with test compound or vehicle, 8×10^-9 M LTE4, LTD4 or LTC4 is added and the response recorded. The percentage inhibition by the test compound or the percentage change in vehicle controls is calculated, for each tissue, according to the following equation: % inhibition=100 multiplied by (mg. tension increase of preceding response minus mg. tension increase in presence of compound) […]) divided by mg. tension increase of preceding response. The mean percentage change for vehicle controls and test compound are calculated and evaluated for significant differences by Students' t-test for unpaired data. Tissues exposed to test compounds were retested for responsiveness to LTE4, LTD4 or LTC4 following a 25 minute washout period. If tissue responsiveness was equal to responsiveness preceding exposure to the test compound additional studies were conducted. If responsiveness was not restored by the washing procedure, the tissues were discarded. The cyclooxygenase inhibitor, indomethacin, is present at 5×10^-6 M in all the determinations.
In general, compounds of formula I produce a significant increase in the time of onset of leukotriene initiated breathing changes following either oral, intravenous or intra peritoneal administration at a dose of 100 mg./kg., or much less, without any indication of untoward side-effects at several multiples of the minimum effective dose. By way of example, the compounds described in Examples 262, 158 and 168 produced significant increases in time required for onset of leukotriene D4 initiated disponoea following oral dosing at about 5 mg./kg., 43 mg./kg. and 50 mg./kg., respectively, 1-2 hours prior to leukotriene challenge.

SMILES | leukotriene antagonist properties
COc1cc(C(=O)O)ccc1Cn1ccc2ccc(NC(=O)CC3CCCC3)cc21 [Example 114] | potent leukotriene antagonist properties
COc1cc(C(=O)O)ccc1Cn1ccc2ccc(NC(=O)OC3CCC3)cc21 [Example 122] | potent leukotriene antagonist properties
CCCCOC(=O)Nc1ccc2ccn(Cc3ccc(-c4nnn[nH]4)cc3OC)c2c1 [Example 157, 6-(butoxycarbonyl)amino-1-(2-methoxy-4-[1(H)-tetrazol-5-yl]benzyl)indole] | potent leukotriene antagonist properties
COc1cc(-c2nnn[nH]2)ccc1Cn1ccc2ccc(NC(=O)OC3CCCC3)cc21 [Example 158, 6-(cyclopentyloxycarbonyl)amino-1-(2-methoxy-4-[1(H)tetrazol-5-yl]benzyl)indole] | potent leukotriene antagonist properties
CCCCOC(=O)Nc1ccc2cnn(Cc3ccc(-c4nnn[nH]4)cc3OC)c2c1 [Example 161, 6-(butyloxycarbonyl)amino-1-(2-methoxy-4-[1(H)-tetrazol-5-yl]benzyl)indazole] | potent leukotriene antagonist properties
COc1cc(-c2nnn[nH]2)ccc1Cn1ncc2ccc(NC(=O)OC3CCCC3)cc21 [Example 162, 6-(cyclopentyloxycarbonyl)amino-1-(2-methoxy-4-[1(H)-tetrazole-5-yl]benzyl)indazole] | potent leukotriene antagonist properties
CCCCC(CC)C(=O)Nc1ccc2cnn(Cc3ccc(-c4nnn[nH]4)cc3OC)c2c1 (stereo not drawn) [Example 163, 6-(2-ethylhexanamido)-1-(2-methoxy-4-[2(H)-tetrazol-5-yl]benzyl)indazole] | potent leukotriene antagonist properties
COc1cc(C(=O)O)ccc1Cn1ncc2ccc(NC(=O)OC3CCCC3)cc21 [Example 170] | potent leukotriene antagonist properties
COc1cc(C(=O)O)ccc1Cn1ccc2ccc(NC(=O)OC3CCCC3)cc21 [Example 176, 4-[6-(cyclopentyloxycarbonyl)aminoindol-1-ylmethyl]-3-methoxybenzoic acid] | potent leukotriene antagonist properties
COc1cc(C(=O)O)ccc1Cn1ccc2ccc(NC(=O)CC3CCCCC3)cc21 [Example 209] | potent leukotriene antagonist properties
COc1cc(C(=O)O)ccc1Cn1cc(Cl)c2ccc(NC(=O)OC3CCCC3)cc21 [Example 221] | potent leukotriene antagonist properties
COc1cc(C(=O)O)ccc1Cn1cc(C(C)=O)c2ccc(NC(=O)OC3CCCC3)cc21 [Example 222] | potent leukotriene antagonist properties
COc1cc(C(=O)O)ccc1Cn1cc(Cl)c2ccc(NC(=O)CC3CCCC3)cc21 [Example 224] | potent leukotriene antagonist properties
CCCCC(CC)C(=O)Nc1ccc2c(C=CC(=O)OC)cn(Cc3ccc(C(=O)O)cc3OC)c2c1 (stereo not drawn) [Example 241, 4-(3-[2-methoxycarbonylvinyl]-6-[2-ethylhexanamido]indol-1-ylmethyl)-3-methoxybenzoic acid] | potent leukotriene antagonist properties
COc1cc(C(=O)NS(=O)(=O)c2ccccc2)ccc1Cn1ccc2ccc(NC(=O)OC3CCCC3)cc21 [Example 256, N-(4-[6-(cyclopentyloxycarbonyl)-aminoindol-1-ylmethyl]-3-methoxybenzoyl)benzenesulphonamide] | potent leukotriene antagonist properties
CCC(C(=O)Nc1ccc2cnn(Cc3ccc(C(=O)NS(=O)(=O)c4ccccc4)cc3OC)c2c1)c1ccccc1 (stereo not drawn) [Example 261, N-(4-[6-(2-phenylbutanamido)indazol-1-ylmethyl]-3-methoxybenzoyl)benzenesulphonamide] | potent leukotriene antagonist properties
COc1cc(C(=O)NS(=O)(=O)c2ccccc2)ccc1Cn1ncc2ccc(NC(=O)OC3CCCC3)cc21 [Example 262] | potent leukotriene antagonist properties
COc1cc(C(=O)NS(=O)(=O)c2ccccc2)ccc1Cn1ncc2ccc(NC(=O)CC3CCCC3)cc21 [Example 263, N-(4-[6-(2-cyclopentylacetamido)indazol-1-ylmethyl]-3-methoxybenzoyl)benzenesulphonamide] | potent leukotriene antagonist properties
COc1cc(C(=O)NS(=O)(=O)c2ccccc2C)ccc1Cn1ncc2ccc(NC(=O)CC3CCCC3)cc21 [Example 264] | potent leukotriene antagonist properties
COc1cc(C(=O)NS(=O)(=O)c2ccccc2C)ccc1Cn1ccc2ccc(NC(=O)CC3CCCC3)cc21 [Example 265] | potent leukotriene antagonist properties
COc1cc(C(=O)NS(=O)(=O)c2ccccc2N)ccc1Cn1ccc2ccc(NC(=O)CC3CCCC3)cc21 [Example 266] | potent leukotriene antagonist properties
COc1cc(C(=O)NS(=O)(=O)c2ccccc2)ccc1Cn1cc(C(C)=O)c2ccc(NC(=O)OC3CCCC3)cc21 [Example 277, N-(4-[3-acetyl-6-(cyclopentyloxycarbonyl)aminoindol-1-ylmethyl]-3-methoxybenzoyl)benzenesulphonamide] | potent leukotriene antagonist properties
COc1cc(C(=O)NS(=O)(=O)c2ccccc2)ccc1Cn1ccc2ccc(NC(=O)C3CCCC3)cc21 [Example 278] | potent leukotriene antagonist properties
COc1cc(C(=O)NS(=O)(=O)c2ccccc2)ccc1Cn1cc(Cl)c2ccc(NC(=O)OC3CCCC3)cc21 [Example 279] | potent leukotriene antagonist properties
COc1cc(C(=O)NS(=O)(=O)c2ccccc2)ccc1Cn1ccc2ccc(NC(=O)CC3CCCC3)cc21 [Example 280, N-(4-[6-(2-cyclopentylacetamido)indol-1-ylmethyl]-3-methoxybenzoyl)benzenesulphonamide] | potent leukotriene antagonist properties
COc1cc(C(=O)NS(=O)(=O)c2ccccc2)ccc1CN1CCc2ccc(NC(=O)CC3CCCC3)cc21 [Example 284, N-(4-[6-(2-cyclopentylacetamido)indolin-1-ylmethyl]-3-methoxybenzoyl)benzenesulphonamide] | potent leukotriene antagonist properties
CCCCOC(=O)Nc1ccc2cnn(Cc3ccc(C(=O)NS(=O)(=O)c4ccccc4)cc3OC)c2c1 [Example 294] | potent leukotriene antagonist properties
